A short description of the assay: Antagonist activity at ER in human MCF7 cells assessed as inhibition of 17beta-estradiol-induced cell proliferation.

With `Oc1ccc2c(c1)C(c1ccc(OCCN3CCCCC3)cc1)c1c(sc3cc(O)ccc13)C2` (stereo unspecified), the IC50 (as a rule, the concentration that inhibits the measured activity by half) came out at 0.9 nM.

(Values after BindingDB's records for doi:10.1016/j.ejmech.2017.07.038 (Jain University, 2017).)
